These are literature values, as cited in PubChem BioAssay AID1259409 (Chemical Carcinogenesis Research Information System (CCRIS), 2018).

“And” between values parts separate entries of the source, which are not always exact repeats. Identical values can stand only once.

The test system of this data set is rodent chemically induced tumor inhibition, incidence and multiplicity. In words: CCRIS tumor inhibitor studies.

For the compound `CC(=O)Oc1ccccc1C(=O)Oc1ccccc1C(=O)O`, the “tumour outcome (control, treated, inhibition, significance)” value is, setting by setting: (Carcinogen: NONE USED, Dose [Inhibitor]: 0, 0.1% IN CHOLINE-DEFICIENT DIET FOR 30 WK (STUDY DURATION: 30 WK), Route [Inhibitor]: ORAL, Species: RAT, Strain/Sex: F344/MALE, Target Tissue: Type of Lesion: LIVER: NEOPLASTIC NODULE, Promoter: NONE USED) 8/8 (100%), 10/10 (100%), 0%, not significant and 4/4 (100%), 3/3 (100%), 0%, not significant; (Carcinogen: NONE USED, Dose [Inhibitor]: 0, 0.2% IN CHOLINE-DEFICIENT DIET FOR 30 WK (STUDY DURATION: 30 WK), Route [Inhibitor]: ORAL, Species: RAT, Strain/Sex: F344/MALE, Target Tissue: Type of Lesion: LIVER: NEOPLASTIC NODULE, Promoter: NONE USED) 8/8 (100%), 4/11 (36%), 64%, p<0.05 and 4/4 (100%), 3/3 (100%), 0%, not significant; (Carcinogen: NONE USED, Dose [Inhibitor]: 0, 0.4% IN CHOLINE-DEFICIENT DIET FOR 30 WK (STUDY DURATION: 30 WK), Route [Inhibitor]: ORAL, Species: RAT, Strain/Sex: F344/MALE, Target Tissue: Type of Lesion: LIVER: NEOPLASTIC NODULE, Promoter: NONE USED) 4/4 (100%), 0/4 (0%), 100%, p<0.05; (Carcinogen: NONE USED, Dose [Inhibitor]: 0, 0.8% IN CHOLINE-DEFICIENT DIET FOR 30 WK (STUDY DURATION: 30 WK), Route [Inhibitor]: ORAL, Species: RAT, Strain/Sex: F344/MALE, Target Tissue: Type of Lesion: LIVER: NEOPLASTIC NODULE, Promoter: NONE USED) 4/4 (100%), 0/3 (0%), 100%, p<0.05.
`COc1ccc([Se])cc1`: the “tumour outcome (control, treated, inhibition, significance)” value by setting is: (Carcinogen: AZOXYMETHANE, 25843-45-2, Dose [Inhibitor]: 0, 50 PPM IN HIGH-FAT DIET BEGINNING 2 WK PRIOR TO CARCINOGEN AND CONTINUING UNTIL 2 WK POST CARCINOGEN (STUDY DURATION:, Route [Inhibitor]: ORAL, Species: RAT, Strain/Sex: F344/FEMALE, Target Tissue: Type of Lesion: COLON: ADENOMA, ADENOCARCINOMA, Dose [Carcinogen]: 15 MG/KG IN NORMAL SALINE 1/WK FOR 3 WK, Promoter: NONE USED) 27/29 (93%), 15/31 (48%), 48%, p<0.05; (Carcinogen: AZOXYMETHANE, 25843-45-2, Dose [Inhibitor]: 0, 50 PPM IN HIGH-FAT DIET BEGINNING 2 WK PRIOR TO CARCINOGEN AND CONTINUING UNTIL 2 WK POST CARCINOGEN (STUDY DURATION:, Route [Inhibitor]: ORAL, Species: RAT, Strain/Sex: F344/FEMALE, Target Tissue: Type of Lesion: KIDNEY: ADENOMA, ADENOCARCINOMA, NEPHROBLASTOMA, Dose [Carcinogen]: 15 MG/KG IN NORMAL SALINE 1/WK FOR 3 WK, Promoter: NONE USED) 15/29 (52%), 8/31 (26%), 50%, p<.05; (Carcinogen: AZOXYMETHANE, 25843-45-2, Dose [Inhibitor]: 0, 50 PPM IN HIGH-FAT DIET BEGINNING 2 WK PRIOR TO CARCINOGEN AND CONTINUING UNTIL 2 WK POST CARCINOGEN (STUDY DURATION:, Route [Inhibitor]: ORAL, Species: RAT, Strain/Sex: F344/FEMALE, Target Tissue: Type of Lesion: SMALL INTESTINE: ADENOMA, ADENOCARCINOMA, Dose [Carcinogen]: 15 MG/KG IN NORMAL SALINE 1/WK FOR 3 WK, Promoter: NONE USED) 3/29 (10%), 5/31 (16%), -60%, not significant.
Consider `II`, for which the outcome by setting is: (Carcinogen: N-METHYL-N-NITROSOUREA [684-93-5], Dose [Inhibitor]: 0.05% I2 IN DRINKING WATER, 2 WKS BEFORE CARCINOGEN AND FOR 26 WKS AFTER, Route [Inhibitor]: DRINKING WATER, Species: RAT, Strain/Sex: SPRAGUE-DAWLEY/FEMALE, Target Tissue: Type of Lesion: MAMMARY GLAND: CARCINOMA, Dose [Carcinogen]: 50 MG/KG BW ONCE AT 7 WKS OF AGE (IN SALINE SOLUTION)) 8/11 (73%) vs 3/10 (30%) at 16 wks, p<0.05; (Carcinogen: N-Methyl-N- nitrosourea (684-93-5), Dose [Inhibitor]: 0, 0.05% in drinking water for a total of 18 wks, Route [Inhibitor]: Oral, Species: Rat, Strain/Sex: Sprague-Dawley, female, Target Tissue: Type of Lesion: Mammary gland, Dose [Carcinogen]: 50 mg, study duration 16 wks after carcinogen) 100%, 62.5%, p<0.05.
On to `CC(N)C(=O)NCC(=O)NC1CSSCC(C(=O)O)NC(=O)C(CO)NC(=O)C(C(C)O)NC(=O)C(Cc2ccccc2)NC(=O)C(C(C)O)NC(=O)C(CCCCN)NC(=O)C(Cc2c[nH]c3ccccc23)NC(=O)C(Cc2ccccc2)NC(=O)C(Cc2ccccc2)NC(=O)C(CC(N)=O)NC(=O)C(CCCCN)NC1=O` (stereo not given), for which, under “Carcinogen: N-NITROSOMORPHOLINE, 59-89-2, Dose [Inhibitor]: 0, 200 UG/KG BW 1/2 D FOR DURATION OF STUDY (STUDY DURATION: 16 WK), Route [Inhibitor]: SUBCUTANEOUS, Species: RAT, Strain/Sex: SPRAGUE-DAWLEY/MALE, Target Tissue: Type of Lesion: LIVER: HEPATOCELLULAR CARCINOMA, Dose [Carcinogen]: 175 MG/L DRINKING WATER FOR 8 WK, Promoter: NONE USED”, the “tumour outcome (control, treated, inhibition, significance)” value is 8/25 (32%), 4/25 (16%), 50%, not significant.
Turning to `O=C(/C=C/c1ccc(O)cc1)c1ccc(O)cc1O`, the “tumour outcome (control, treated, inhibition, significance)” value by setting is: (Carcinogen: 7,12-DIMETHYLBENZ[A]ANTHRACENE, 57-97-6, Dose [Inhibitor]: 0, 0.4 UMOL 2/WK FOR 18 WK BEGINNING 10 D POST CARCINOGEN DOSE (STUDY DURATION: 20 WK), Route [Inhibitor]: DERMAL, Species: MOUSE, Strain/Sex: CD-1/FEMALE, Target Tissue: Type of Lesion: SKIN: PAPILLOMA, Dose [Carcinogen]: 200 NMOL ONCE, Promoter: 12-O-TETRADECANOYLPHORBOL-13-ACETATE, 16561-29-8) 85%, 90%, -6%, not significant; (Carcinogen: 7,12-DIMETHYLBENZ[A]ANTHRACENE, 57-97-6, Dose [Inhibitor]: 0, 10 UMOL 2/WK FOR 18 WK BEGINNING 10 D POST CARCINOGEN DOSE (STUDY DURATION: 20 WK), Route [Inhibitor]: DERMAL, Species: MOUSE, Strain/Sex: CD-1/FEMALE, Target Tissue: Type of Lesion: SKIN: PAPILLOMA, Dose [Carcinogen]: 200 NMOL ONCE, Promoter: 12-O-TETRADECANOYLPHORBOL-13-ACETATE, 16561-29-8) 85%, 50%, 41%, p<0.05; (Carcinogen: 7,12-DIMETHYLBENZ[A]ANTHRACENE, 57-97-6, Dose [Inhibitor]: 0, 10 UMOL 2/WK FOR 21 WK BEGINNING 10 D POST CARCINOGEN DOSE (STUDY DURATION: 23 WK), Route [Inhibitor]: DERMAL, Species: MOUSE, Strain/Sex: CD-1/FEMALE, Target Tissue: Type of Lesion: SKIN: PAPILLOMA, Dose [Carcinogen]: 200 NMOL ONCE, Promoter: 12-O-TETRADECANOYLPHORBOL-13-ACETATE, 16561-29-8) 90%, 0%, 100%, p<0.05; (Carcinogen: 7,12-DIMETHYLBENZ[A]ANTHRACENE, 57-97-6, Dose [Inhibitor]: 0, 15 UMOL 2/WK FOR 18 WK BEGINNING 10 D POST CARCINOGEN DOSE (STUDY DURATION: 20 WK), Route [Inhibitor]: DERMAL, Species: MOUSE, Strain/Sex: CD-1/FEMALE, Target Tissue: Type of Lesion: SKIN: PAPILLOMA, Dose [Carcinogen]: 200 NMOL ONCE, Promoter: 12-O-TETRADECANOYLPHORBOL-13-ACETATE, 16561-29-8) 85%, 5%, 95%, p<0.05.
Consider `ClC1C(Cl)C(Cl)C(Cl)C(Cl)C1Cl` (stereo not given), for which the “tumour outcome (control, treated, inhibition, significance)” value runs as follows: (Carcinogen: DIETHYLNITROSAMINE, 55-18-5, Dose [Inhibitor]: 0, 250 PPM IN DIET FOR 24 WK BEGINNING AT 28 D OF AGE (STUDY DURATION: 26 WK), Route [Inhibitor]: ORAL, Species: MOUSE, Strain/Sex: B6C3F1/MALE, Target Tissue: Type of Lesion: LIVER: ADENOMA, Dose [Carcinogen]: 5 UG/G BW IN 0.1 ML SALINE ONCE AT 15 D OF AGE, Promoter: NONE USED) 15/15 (100%), 15/15 (100%), 0%, not significant; (Dose [Inhibitor]: 0, 100 PPM IN DIET ADMINISTERED CONCURRENTLY WITH CARCINOGEN FOR 1 WK (STUDY DURATION: 82 WK), Route [Inhibitor]: ORAL, Species: RAT, Strain/Sex: BUFFALO/FEMALE, Target Tissue: Type of Lesion: LIVER: TUMOR, Dose [Carcinogen]: 1 PPM IN DIET FOR 1 WK, Promoter: NONE USED) 6/19 (32%), 1/20 (5%), 84%, not calculated; (Dose [Inhibitor]: 0, 100 PPM IN DIET ADMINISTERED CONCURRENTLY WITH CARCINOGEN FOR 3 WK (STUDY DURATION: 82 WK), Route [Inhibitor]: ORAL, Species: RAT, Strain/Sex: BUFFALO/FEMALE, Target Tissue: Type of Lesion: LIVER: TUMOR, Dose [Carcinogen]: 1 PPM IN DIET FOR 3 WK, Promoter: NONE USED) 6/19 (32%), 0/23 (0%), 100%, not calculated; (Dose [Inhibitor]: 0, 100 PPM IN DIET ADMINISTERED CONCURRENTLY WITH CARCINOGEN FOR 5 WK (STUDY DURATION: 82 WK), Route [Inhibitor]: ORAL, Species: RAT, Strain/Sex: BUFFALO/FEMALE, Target Tissue: Type of Lesion: LIVER: TUMOR, Dose [Carcinogen]: 1 PPM IN DIET FOR 5 WK, Promoter: NONE USED) 6/19 (32%), 0/17 (0%), 100%, not calculated; (Dose [Inhibitor]: 0, 100 PPM IN DIET ADMINISTERED CONCURRENTLY WITH CARCINOGEN FOR 10 WK (STUDY DURATION: 82 WK), Route [Inhibitor]: ORAL, Species: RAT, Strain/Sex: BUFFALO/FEMALE, Target Tissue: Type of Lesion: LIVER: TUMOR, Dose [Carcinogen]: 1 PPM IN DIET FOR 10 WK, Promoter: NONE USED) 6/19 (32%), 0/22 (0%), 100%, not calculated; (Dose [Inhibitor]: 0, 100 PPM IN DIET ADMINISTERED CONCURRENTLY WITH CARCINOGEN FOR 15 WK (STUDY DURATION: 82 WK), Route [Inhibitor]: ORAL, Species: RAT, Strain/Sex: BUFFALO/FEMALE, Target Tissue: Type of Lesion: LIVER: TUMOR, Dose [Carcinogen]: 1 PPM IN DIET FOR 15 WK, Promoter: NONE USED) 6/19 (32%), 0/13 (0%), 100%, not calculated.
